Assay results: US10457689B2, “Ammonium derivatives, a process for their preparation and pharmaceutical compositions containing them” (LES LABORATOIRES SERVIER, priority 2016, dated 2019)
Values after ≈ are worked out from the molar mass of the structure shown. Where a name gives a salt, the structure may show the parent alone.

Columns and labels:
Solubility test Method 1 = format: physicochemical; conditions: Method 1: 30% propylene glycol in water, shaked 72 hours at room temperature
Description: Sample solutions (around 16.7 mg/ml) in propylene glycol were diluted with water (30% propylene glycol). Then, samples were shaked for 72 hours at room temperature. After shaking period, samples were centrifuged, then the liquid phase was filtered and analyzed using HPLC coupled to UV detection. To determine the actual concentration a 5-point calibration curve was established.

Mcl-1 protein = Mcl-1 protein (Homo sapiens, UniProt Q07820); test: Inhibition of Mcl-1 by the fluorescence polarisation technique; format: binding; conditions: fluorescence polarisation test; read-out: IC50 (M) Mcl-LFP
Description: The relative, binding potency of each compound was determined via Fluorescence Polarisation (FP). The method utilised a Fluorescein labelled ligand (Fluorescein-βAla-Ahx-A-REIGAQLRRMADDLNAQY-OH; mw 2,765) which binds to the Mcl-1 protein (such that Mcl-1 corresponds to the UniProtKB® primary accession number: Q07820) leading to an increased anisotropy measured in milli-polarisation (mP) units using a reader. The addition of a compound which binds competitively to the same site as the ligand will result in a greater proportion of unbound ligand in the system indicated by a decrease in mP units.
An 11 point serial dilution of each compound was prepared in DMSO and 2 μl transferred into flat bottomed, low binding, 384-well plate (final DMSO concentration 5%), 38 μl of buffer (10 mM 4-(2-hydroxyethyl)-1-piperazineethanesolfonic acid [HEPES], 150 mM NaCl, 0.05% Tween 20, pH 7.4), containing the Fluorescein labelled ligand (final concentration 1 nM) and Mcl-1 protein (final concentration 5 nM) was then added.
Assay plates were incubated ˜2 hours at room temperature before FP was measured on a […] Synergy2 reader (Ex. 528 nm, Em. 640 nm, Cut off 510 nm) and mP units calculated. The binding of increasing doses of test compound was expressed as a percentage reduction in mP compared to a window established between ‘5% DMSO only’ and ‘100% inhibition’ controls. 11-point dose response curves were plotted with XL-Fit software using a 4-Parameter Logistic Model (Sigmoidal Dose-Response Model) and the inhibitory concentrations that gave a 50% reduction in mP (IC50) were determined.

[1] = system: H929 multiple myeloma tumour line; test: In vitro cytotoxicity (MTT); format: cell-based; conditions: 48 hours exposure
Description: The cytotoxicity studies were carried out on the H929 multiple myeloma tumour line.
The cells are distributed onto microplates and exposed to the test compound for 48 hours.
The cell viability is then quantified by a colorimetric assay, the Microculture Tetrazolium Assay (Carmichael et al. Cancer Res. 1987, 47, 936-942).

Solubility test Method 2 = format: physicochemical; conditions: Method 2: aqueous phosphate buffer 67.7 mM, pH 7.4, room temperature
Description: Samples (40 mg/mL) were diluted in aqueous phosphate buffer (67.7 mM, with pH adjusted at 7.4) used for in vivo studies. Samples were shaked at room temperature, then filtered. The solubilized fraction was quantified by LC-MS-MS analysis.

Sequence of Mcl-1 protein (Q07820 whole entry): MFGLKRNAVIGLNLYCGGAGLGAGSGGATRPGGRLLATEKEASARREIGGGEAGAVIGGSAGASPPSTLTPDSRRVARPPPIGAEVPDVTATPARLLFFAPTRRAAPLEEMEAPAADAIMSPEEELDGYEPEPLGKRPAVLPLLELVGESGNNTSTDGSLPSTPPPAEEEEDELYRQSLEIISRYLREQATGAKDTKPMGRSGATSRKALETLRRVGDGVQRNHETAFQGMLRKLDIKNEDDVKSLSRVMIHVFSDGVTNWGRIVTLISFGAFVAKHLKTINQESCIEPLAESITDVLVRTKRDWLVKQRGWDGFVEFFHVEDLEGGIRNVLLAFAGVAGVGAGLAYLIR

| IC50 (Mcl-1 protein) [M] | solubility (Solubility test Method 2) [mg/mL] | SMILES | solubility (Solubility test Method 1) [µM] | IC50 ([1]; H929 cells) [nM] | IC50 ([1]; Homo sapiens, NCI-H929, H929 cells) [nM] |
| --- | --- | --- | --- | --- | --- |
| – | – | COc1ccccc1-c1nccc(COc2ccccc2C[C@@H](Oc2ncnc3sc(-c4ccc(F)cc4)c(-c4ccc(OCCN5CCN(C)CC5)c(Cl)c4C)c23)C(=O)O)n1 [(2R)-2-{[(5Sa)-5-{3-chloro-2-methyl-4-[2-(4-methylpiperazin-1-yl)ethoxy]phenyl}-6-(4-fluorophenyl)thieno[2,3-d]pyrimidin-4-yl]oxy}-3-(2-{[2-(2-methoxyphenyl)pyrimidin-4-yl]methoxy}phenyl)propanoic acid, reference compound] | 63.3 (≈ 55.4 µg/mL) | – | – |
| 1.06e-09 | > 35 | COc1ccccc1-c1nccc(COc2ccccc2CC(Oc2ncnc3sc(-c4ccc(F)cc4)c(-c4ccc(OCC[N+](C)(C)COP(=O)([O-])O)c(Cl)c4C)c23)C(=O)O)n1 [Example 11, {4-[2-(4-{(5Sa)-4-[(1R)-1-carboxy-2-(2-{[2-(2-methoxyphenyl)pyrimidin-4-yl]methoxy}phenyl)ethoxy]-6-(4-fluorophenyl)thieno[2,3-d]pyrimidin-5-yl}-2-chloro-3-methylphenoxy)ethyl](dimethyl)ammonio}methyl hydrogen phosphate] | – | – | 39.3 |
| 1.77e-09 | – | COc1ccccc1-c1nccc(COc2ccccc2C[C@@H](Oc2ncnc3sc(-c4ccc(F)cc4)c(-c4ccc(OCCN5CC[N+](C)(COC(=O)C(C)(C)C)CC5)c(Cl)c4Br)c23)C(=O)O)n1 [Example 32, 4-[2-(3-bromo-4-{(5Sa)-4-[(1R)-1-carboxy-2-(2-{[2-(2-methoxyphenyl)pyrimidin-4-yl]methoxy}phenyl)ethoxy]-6-(4-fluorophenyl)thieno[2,3-d]pyrimidin-5-yl}-2-chlorophenoxy)ethyl]-1-{[(2,2-dimethylpropanoyl)oxy]methyl}-1-1-methyl piperazin-1-ium trifluoroacetate] | – | 2.11 | – |

| SMILES | IC50 (Mcl-1 protein) [M] | solubility (Solubility test Method 2) [mg/mL] | solubility (Solubility test Method 1) [µM] | IC50 ([1]; H929 cells) [nM] | IC50 ([1]; Homo sapiens, NCI-H929, H929 cells) [nM] |
| --- | --- | --- | --- | --- | --- |
| COc1ccccc1-c1nccc(COc2ccccc2C[C@@H](Oc2ncnc3sc(-c4ccc(F)cc4)c(-c4ccc(OCCN5CC[N+](C)(COP(=O)([O-])O)CC5)c(Cl)c4C)c23)C(=O)O)n1 [Example 1, {4-[2-(4-{(5Sa)-4-[(1R)-1-carboxy-2-(2-{[2-(2-methoxyphenyl)pyrimidin-4-yl]methoxy}phenyl)ethoxy]-6-(4-fluorophenyl)thieno[2,3-d]pyrimidin-5-yl}-2-chloro-3-methylphenoxy)ethyl]-1-methylpiperazin-1-ium-1-yl}methyl hydrogen phosphate] | 1.03e-09 | – | ≥ 4907 | 28.4 | – |
